Drawing on the Kinase Knowledgebase extract (Sharma et al. 2016), this text covers IC50 for 14 compounds.

The target in this experiment is MAPK14 (human) (UniProt Q16539). The experiment is described as follows: Inhibition of MAPK14 Kinase Activity.
MAPK14 (human), sequence (Q16539 whole entry, looked up): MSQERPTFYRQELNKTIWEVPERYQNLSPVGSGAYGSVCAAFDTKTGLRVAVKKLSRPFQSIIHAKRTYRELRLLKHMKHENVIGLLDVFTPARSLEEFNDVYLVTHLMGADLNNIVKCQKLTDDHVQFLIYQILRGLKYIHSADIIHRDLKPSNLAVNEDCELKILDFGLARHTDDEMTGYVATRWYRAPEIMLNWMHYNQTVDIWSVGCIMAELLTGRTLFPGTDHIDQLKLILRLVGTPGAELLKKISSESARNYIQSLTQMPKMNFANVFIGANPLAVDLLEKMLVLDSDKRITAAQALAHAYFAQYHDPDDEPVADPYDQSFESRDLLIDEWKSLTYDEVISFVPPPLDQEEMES
On to `Cc1ccc(C(=O)NC2CC2)cc1-n1ccnc(NCc2cccc(CNC(=O)OC(C)(C)C)c2)c1=O`, for which the IC50 turned out to be 31.6 nM.

`CCN(CC)CCOc1ccccc1C(C)(C)Nc1nccn(-c2cc(C(=O)NC3CC3)ccc2C)c1=O` came in with an IC50 of 0.631 nM.

The compound `CNCCCOc1ccccc1[C@@H]1CCCN1c1nccn(-c2cc(C(=O)NC3CC3)ccc2C)c1=O` had an IC50 of 25.1 nM.

The compound `Cc1ccc(C(=O)NC2CC2)cc1-n1ccnc(NCC2Cc3ccccc3CN2)c1=O` (centres undefined) displayed an IC50 of 126 nM.

Compound `Cc1ccc(C(=O)NC2CC2)cc1-n1ccnc(NC(c2ccccc2)C2CCN(C)CC2)c1=O` (centres undefined) gave an IC50 of 251 nM.

For `Cc1ccc(C(=O)NC2CC2)cc1-n1ccnc(N[C@@H](c2ccccc2)[C@@H](C)CN2CCC(C(N)=O)CC2)c1=O`, the IC50 amounted to 0.631 nM.

`CCC(CC)(Nc1nccn(-c2cc(C(=O)NC3CC3)ccc2C)c1=O)c1ccccc1OCCNC` gave an IC50 of 0.398 nM.

The compound `Cc1ccc(C(=O)NC2CC2)cc1-n1ccnc(N[C@@H](c2ccccc2)[C@@H](C)CN2CCCN(C)CC2)c1=O` returned an IC50 of 1 nM.

With `CNCCCOc1ccccc1[C@H]1CCCN1c1nccn(-c2cc(C(=O)NC3CC3)ccc2C)c1=O`, the IC50 amounted to 1.26 nM.

On to `Cc1ccc(C(=O)NC2CC2)cc1-n1ccnc(N[C@H](CC(=O)OC(C)(C)C)c2ccccc2)c1=O`, for which the IC50 was 20 nM.

With `CCC(C)NC(=O)c1ccc(C)c(-n2ccnc(NCc3ccc(N4CCN(C)CC4)cc3)c2=O)c1` (centres undefined), the IC50 is 1000 nM.

In turn, `Cc1ccc(C(=O)NC2CC2)cc1-n1ccnc(N[C@H](CC(=O)N2CCN(C)CC2)c2ccccc2)c1=O` had an IC50 of 25.1 nM.

Take `Cc1ccc(C(=O)NC2CC2)cc1-n1ccnc(NC(CC(=O)NC2CC2)c2ccccc2)c1=O` (centres undefined): the IC50 was 31.6 nM.

In turn, `Cc1ccc(C(=O)NC2CC2)cc1-n1ccnc(NCc2ccc(CNC(=O)OC(C)(C)C)cc2)c1=O` registered an IC50 of 501 nM.

Broadly, the IC50 is the concentration needed to halve the response being measured. The low end stands for greater potency in that assay, the high end for weaker potency in that assay.
